Earlier results, collected in patent publication EP3932402A1, “ADAM17 INHIBITORS FOR USE IN THE PREVENTION AND/OR TREATMENT OF COVID-19” (Max-Delbrück-Centrum für Molekulare Medizin in der …, priority 2020, dated 2022).

Columns and labels:
ADAM17 = molecular target: T1, ADAM17 (Homo sapiens, UniProt P78536); details: Moss et al., 2008
T1 construct: host or cells: patients (endogenous enzyme)

ADAM17, ADAM10 = details: in combination with trastuzumab; Newton et al

T1 sequence (P78536 215-824): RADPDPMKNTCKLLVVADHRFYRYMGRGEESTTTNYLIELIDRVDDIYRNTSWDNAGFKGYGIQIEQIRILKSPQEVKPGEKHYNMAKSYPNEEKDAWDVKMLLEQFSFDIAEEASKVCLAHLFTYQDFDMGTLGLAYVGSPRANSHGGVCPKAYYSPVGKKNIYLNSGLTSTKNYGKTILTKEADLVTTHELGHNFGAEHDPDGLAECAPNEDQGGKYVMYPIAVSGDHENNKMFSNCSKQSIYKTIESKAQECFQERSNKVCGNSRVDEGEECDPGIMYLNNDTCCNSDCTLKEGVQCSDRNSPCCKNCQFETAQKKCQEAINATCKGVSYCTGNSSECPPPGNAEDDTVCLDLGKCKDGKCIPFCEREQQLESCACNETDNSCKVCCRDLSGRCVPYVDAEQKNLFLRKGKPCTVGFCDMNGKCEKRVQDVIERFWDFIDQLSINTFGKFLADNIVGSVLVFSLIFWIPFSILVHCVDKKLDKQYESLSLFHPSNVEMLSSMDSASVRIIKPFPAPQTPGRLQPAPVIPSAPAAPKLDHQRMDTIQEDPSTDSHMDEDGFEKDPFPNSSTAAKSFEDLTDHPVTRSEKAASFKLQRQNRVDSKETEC

SMILES	reason for discontinued development (ADAM17)	proof of concept in sepsis and rheumatoid arthritis (ADAM17; clinical Phase II)	pro-coagulant effects (adult patients)	deep venous thrombosis, incidence (solid tumors and breast cancer)	dose limiting toxicity (solid tumors and breast cancer)	severity of adverse effects (solid tumors and breast cancer)	HER2 cleavage (ADAM17, ADAM10)	clinical response rate (ADAM17, ADAM10)
CON(Cc1ccc(F)cc1)C(=O)C=C1OC(C)(C)OC1=O [BMS-561392, Acetamide, 2-(2,2-dimethyl-5-oxo-1,3-dioxolan-4-ylidene)-N-((4-fluorophenyl)methyl)-N-methoxy-]	concerns over liver toxicity	beneficial effects	–	–	–	–	–	–
COC(=O)N1CC2(CC2)C[C@H](C(=O)NO)[C@H]1C(=O)N1CCN(c2ccccc2)CC1 [INCB7839, methyl (6S,7S)-7-(hydroxycarbamoyl)-6-(4-phenylpiperazine-1-carbonyl)-5-azaspiro[2.5]octane-5-carboxylate]	–	–	observed in some adult patients	9/41	deep venous thrombosis	mild to moderate	markedly reduced	markedly reduced
